Patent publication US20220281848A1, “PYRAZOLE-SUBSTITUTED PYRROLIDINONES AS HERBICIDES” (FMC Corporation, priority 2019, published 2022)

Test system: plants
Test: Test D pre-emergence, other plants of Tables D1 and D3
Format: in vivo
Conditions: pre-emergence, 100=total damage, 0=no damage
Protocol: A formulation containing 50 g/L of the test chemical was prepared by dissolving the active ingredient in a mixture of organic solvents and emulsifier, details of which are provided in the table. This formulation was then mixed with a small, variable amount of acetone to aid dissolution, before addition of a 0.2% v/v aqueous solution of an adjuvant, as the aqueous diluent, to form an aqueous spray solution which contains a predetermined concentration of the active ingredient.
This aqueous spray solution was then sprayed onto plants including maize and wheat that had been seed treated with a herbicide safener, after one day's cultivation (for pre-emergence) or after about 12 days' cultivation (for post-emergence). The plants were grown from seeds sown in standard soil, placed in a glasshouse under controlled conditions (at 24/18° C. or 20/16° C., day/night; 16 h light; 65% humidity). After spray application the plants were then grown in a glasshouse under the same conditions and watered twice daily. After 15 d for post-emergence and 20 DAA for pre-emergence the test was evaluated (100=total damage to plant; 0=no damage to plant).

## CN1CC(c2cc(C(F)(F)F)n(C)n2)C(C(=O)Nc2cccc(F)c2F)C1=O (racemic) [Compound 3]
Rate 15, 20 DAA
  damage to plant, ALOMY: 0
  damage to plant, AVEFA: 0
  damage to plant, BEAVA: 0
  damage to plant, BROTE: 0
  damage to plant, BRSNN: 0
  damage to plant, CHEAL: 0
  damage to plant, GALAP: 0
  damage to plant, HORVW: 0
  damage to plant, KCHSC: 0
  damage to plant, LOLPE: 0
  damage to plant, POAAN: 0
  damage to plant, POLCO: 0
  damage to plant, SINAR: 0
  damage to plant, STEME: 0
  damage to plant, VERPE: 0
Rate 30, 20 DAA
  damage to plant, ALOMY: 0
  damage to plant, AVEFA: 0
  damage to plant, BEAVA: 0
  damage to plant, BROTE: 0
  damage to plant, BRSNN: 0
  damage to plant, CHEAL: 0
  damage to plant, GALAP: 0
  damage to plant, HORVW: 0
  damage to plant, KCHSC: 0
  damage to plant, LOLPE: 0
  damage to plant, POAAN: 20
  damage to plant, POLCO: 0
  damage to plant, SINAR: 0
  damage to plant, STEME: 0
  damage to plant, VERPE: 0
Rate 60, 20 DAA
  damage to plant, ALOMY: 0
  damage to plant, AVEFA: 0
  damage to plant, BEAVA: 0
  damage to plant, BROTE: 0
  damage to plant, BRSNN: 0
  damage to plant, CHEAL: 0
  damage to plant, GALAP: 0
  damage to plant, HORVW: 0
  damage to plant, KCHSC: 0
  damage to plant, LOLPE: 0
  damage to plant, POAAN: 20
  damage to plant, POLCO: 0
  damage to plant, SINAR: 0
  damage to plant, STEME: 0
  damage to plant, VERPE: 0
Rate 130, 20 DAA
  damage to plant, ALOMY: 0
  damage to plant, AVEFA: 0
  damage to plant, BEAVA: 0
  damage to plant, BROTE: 0
  damage to plant, BRSNN: 0
  damage to plant, CHEAL: 0
  damage to plant, GALAP: 0
  damage to plant, HORVW: 0
  damage to plant, KCHSC: 0
  damage to plant, LOLPE: 0
  damage to plant, POAAN: 40
  damage to plant, POLCO: 0
  damage to plant, SINAR: 0
  damage to plant, STEME: 0
  damage to plant, VERPE: 0
Rate 250, 20 DAA
  damage to plant, ALOMY: 0
  damage to plant, AVEFA: 0
  damage to plant, BEAVA: 0
  damage to plant, BROTE: 0
  damage to plant, BRSNN: 0
  damage to plant, CHEAL: 0
  damage to plant, GALAP: 0
  damage to plant, HORVW: 0
  damage to plant, KCHSC: 0
  damage to plant, LOLPE: 0
  damage to plant, POAAN: 50
  damage to plant, POLCO: 0
  damage to plant, SINAR: 0
  damage to plant, STEME: 0
  damage to plant, VERPE: 0
Rate 500, 20 DAA
  damage to plant, ALOMY: 20
  damage to plant, AVEFA: 30
  damage to plant, BEAVA: 0
  damage to plant, BROTE: 0
  damage to plant, BRSNN: 0
  damage to plant, CHEAL: 0
  damage to plant, GALAP: 0
  damage to plant, HORVW: 20
  damage to plant, KCHSC: 0
  damage to plant, LOLPE: 50
  damage to plant, POAAN: 60
  damage to plant, POLCO: 0
  damage to plant, SINAR: 0
  damage to plant, STEME: 30
  damage to plant, VERPE: 60
